Reference: US20240425555A1, “MUTANT BRD4 POLYPEPTIDES AND METHODS OF USE THEREOF” (Northwestern University, priority 2023, published 2024)
Values belong to the compound of their own block, whether it stands above or below them.

Assays:
[1] = tested on: Pol II pausing; assay: total Pol II ChIP-seq upon auxin, JQ1, dBET6 or NVP-2 treatment; format: cell-based, human; details: for Pol II pausing (Pol II occupancy profile): auxin 500 uM, JQ1 1 uM, dBET6 250 nM, 3 h
Excerpt: FIG. 1A illustrates the updated BRD4-IAA7 degron line. The F-box protein AtAFB2 was integrated into the C terminus of the BRD4 locus under the control of an independent promoter. […] These treatment concentrations/durations are relevant to all of FIG. 1. […] The gene list (N=6481) in this analysis is used throughout the study (except for FIGS. 3H-J). FIG. 1D illustrates the estimated Cumulative Density Function (ECDF) of pause release ratios (PRR, reported as log 2 fold change) for auxin treatment vs untreated control. The PRR is the ratio of Pol II occupancy within gene bodies to its occupancy at promoters. A leftward shift of the curve indicates an increase in the frequency and/or duration of promoter-proximal pausing, while a rightward shift indicates reduced pausing and/or more efficient release into gene bodies.
FIGS. 8A-8E. collectively illustrate the differences in Pol II pausing induced by BRD4 depletion and bromodomain inhibition, related to FIG. 1. FIG. 8A illustrates the western blot showing the expression of HA-tagged AtAFB2 and the auxin-induced degradation of V5-tagged BRD4 using anti-tag antibodies. FIG. 8B illustrates the western blot comparing the BRD4 protein expression level and degradation kinetics of the previously published BRD4-AID degron to those of the BRD4-IAA7 degron used in this study 12. Note: in FIGS. 8A and 8B, the BRD4-IAA7 clone used is D4 (Hygromycin selected); it is G3 (Neomycin selected) otherwise in the study. […] FIG. 8E illustrates the track examples of Pol II ChIP-seq signal at the HSPA8 and GAPDH loci upon NVP-2 treatment (2 h) and corresponding heatmaps showing Pol II occupancy profiles and fold change in occupancy vs control upon NVP-2 treatment.
To specifically deplete BRD4 without affecting other BET proteins, we generated an updated BRD4 degron line by modifying the published miniIAA7 degron system (hereafter BRD4-IAA7) to reduce basal degradation seen with AID degron-tagged BRD4^30 (FIGS. 1A and 8A).
DLD1 cells were crosslinked with 15 ml 1% PFA (ThermoFisher, #28908) in PBS on 15 cm plates for 10 minutes at RT and quenched by the addition of 2 ml 2.5M glycine followed by shaking for 5 minutes. Crosslinked cells were collected by scraping. Chromatin sonication was performed for 10 minutes using a Covaris E200 set to 10% duty factor, 200 cycles per burst, and 140 peak intensity power. For endogenous protein ChIP, 10-20% of mouse embryonic fibroblasts (MEF) chromatin (prepared the same way as in DLD1 cells) was added to each sample as a spike-in control. For overexpressed protein ChIP, such as GFP-ChIP, 20 ng spike-in chromatin (Active Motif, #53083) and 2 ug spike-in antibody (Active Motif, #61686) were added to each sample. Immunoprecipitation was carried out at 4° C. overnight using 5ul of Rpb1 (Cell Signaling Technology, #D8L4Y), 5ul of Ser2p (Active Motif, #61984), 10ul of CCNT1 (Cell Signaling Technology, #81464), 10ul of CDK9 (Santa Cruz Biotechnology, #sc-13130 X) antibodies, or 200ul of a cocktail consisting of 50ul of each GFP antibody (DSHB, #GFP-G1, #GFP-12A6, #GFP-12E6, #GFP-8H11). Immune complexes were enriched with Protein G-coupled Dynabeads (Invitrogen, #10004D) at 4° C. for >=4 h, and incubated with proteinase K (Roche, #3115828001) to reverse crosslink at 65° C. overnight. Eluted DNA was purified with the QIAquick PCR Purification Kit (Qiagen, #28106), and libraries were prepared using the KAPA HTP library preparation kit (Roche, #07961901001) for sequencing on the NovaSeq 6000.
Reads were aligned to hg38 with bowtie 1/250. Genes (N=6,481) with pausing site and TES annotation were obtained from a previously published study51. Promoter regions were designated as spanning from 100 bp upstream to 300 bp downstream of the pausing site. Gene body regions were designated as spanning from 300 bp downstream of the pausing site to the TES. FeatureCounts 2.0.152 was used to calculate the total mapped reads from Pol II ChIP-seq at promoters and within gene bodies. […]

[2] = target: T1, PTEFb (Homo sapiens, UniProt O60563+P50750); assay: Peptide titration: p46 competition in Bio-p46 pull down assay; format: binding; parameters: endogenous in cells
T1 sequence (P50750 whole entry, the tested form may be a part): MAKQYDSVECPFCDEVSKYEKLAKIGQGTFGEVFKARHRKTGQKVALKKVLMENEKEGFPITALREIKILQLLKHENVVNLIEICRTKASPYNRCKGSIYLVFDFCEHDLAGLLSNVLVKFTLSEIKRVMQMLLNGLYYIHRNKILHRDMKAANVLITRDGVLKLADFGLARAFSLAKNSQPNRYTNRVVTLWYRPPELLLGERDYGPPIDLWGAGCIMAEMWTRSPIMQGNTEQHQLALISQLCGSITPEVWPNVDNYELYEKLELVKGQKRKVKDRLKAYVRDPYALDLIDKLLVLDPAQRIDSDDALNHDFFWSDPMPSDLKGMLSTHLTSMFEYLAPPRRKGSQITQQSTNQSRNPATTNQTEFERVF
T1 sequence (O60563 whole entry, the tested form may be a part): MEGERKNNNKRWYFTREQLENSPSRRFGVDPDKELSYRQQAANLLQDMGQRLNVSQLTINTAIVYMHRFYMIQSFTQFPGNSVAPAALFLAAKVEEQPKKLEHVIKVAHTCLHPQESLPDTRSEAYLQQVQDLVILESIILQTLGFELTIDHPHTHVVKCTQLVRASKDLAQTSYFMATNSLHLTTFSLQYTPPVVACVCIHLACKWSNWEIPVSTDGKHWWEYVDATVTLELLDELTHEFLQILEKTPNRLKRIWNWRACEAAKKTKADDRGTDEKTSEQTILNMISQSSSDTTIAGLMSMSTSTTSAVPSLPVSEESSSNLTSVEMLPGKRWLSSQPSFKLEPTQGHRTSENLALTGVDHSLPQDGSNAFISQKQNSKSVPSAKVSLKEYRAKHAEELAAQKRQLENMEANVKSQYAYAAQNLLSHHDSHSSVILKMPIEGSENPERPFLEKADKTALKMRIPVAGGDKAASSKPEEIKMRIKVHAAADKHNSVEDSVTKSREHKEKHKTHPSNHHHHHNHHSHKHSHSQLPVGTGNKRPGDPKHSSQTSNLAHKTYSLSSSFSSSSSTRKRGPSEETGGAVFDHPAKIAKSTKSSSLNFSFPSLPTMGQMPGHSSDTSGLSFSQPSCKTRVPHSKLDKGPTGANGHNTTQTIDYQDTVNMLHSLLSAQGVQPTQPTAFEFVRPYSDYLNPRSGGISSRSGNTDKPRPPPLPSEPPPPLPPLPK
Excerpt: FIGS. 15A-15E. FIG. 15A. Spectral counts for BRD4, CCNT1, and CDK9 from the GFP IP for the GFP-tagged BRD4 C terminus fragment of 340 residues (C) and 46 residues (C46) followed by mass spectrometry. FIG. 15B. Western blot validation for the mass spectrometry using the remaining GFP IP samples from one of the replicates. FIG. 15C. […] FIG. 15D. […] FIG. 15E. Quantitative curves of PTEFb signal intensity from western blot in D against increasing concentration of p46.
To pull down PTEFb by Biotin-labeled peptide, cells were lysed with Triton X-100 lysis buffer as used for GFP IP. Biotin-labeled peptides were pre-incubated with streptavidin beads at room temperature for 30 min. Conjugated beads were then washed with lysis buffer twice before adding to the cell lysate. Pulldown was carried out at 4° C. by rotating for >=4 h, followed by 5 times wash with lysis buffer. To elute, 4× Laemmli sample buffer was added and boiled for 10 min. For the peptide titration experiment, a series of concentration of p46 was pre-incubated with same amount of cell lysate for 1 h at 4° C. Same amount of Bio-p46 conjugated streptavidin beads were used to pull down PTEFb for >=4 h. PTEFb signal intensity from western blot was determined by Image Lab from Bio-Rad.

[3] = target: T1, PTEFb; assay: BRD4 IP / GFP IP competition for PTEFb by C46 or p46; format: binding; parameters: endogenous in cells; lysate of unnamed cells for the p46 addition
Excerpt: FIGS. 14A-14G. Identification of essential PTEFb binding sites in BRD4's C-terminus. FIG. 14A. Schematic showing the constructs of Dox inducible GFP-tagged BRD4 C terminus mutants with residue length indicated. Western blot of GFP IP for these two mutants upon Dox induction for 2 days showing both mutants can interact with PTEFb. FIG. 14B. […] Auxin treatment serves as a positive control for the loss of endogenous BRD4. FIG. 14C. […] FIG. 14D. […] FIG. 14E. Schematic showing the sequence alignment of the 46 residues in the C terminus of BRD4 and BRDT as well as the alanine scanning strategy to mutate each site for 3 amino acids at one time. FIG. 14F. Comparison of the ability to pull down PTEFb by Bio-p46/Bio-p46* and Biotin-labeled BRDT C terminus 46 residues (Bio-pT46) as well as Biotin-labeled BRD4 C terminus 46 residues with each of the sites mutated to AAA as shown in E (Bio-p1 to p7). FIG. 14G. Western blot of GFP IP showing the amount of PTEFb binding to GFP-tagged BRD4 C terminus fragment of 340 residues (WT) and its mutants with each of the sites mutated to AAA as indicated in E (A-H).
FIGS. 15A-15E. FIG. 15A. Spectral counts for BRD4, CCNT1, and CDK9 from the GFP IP for the GFP-tagged BRD4 C terminus fragment of 340 residues (C) and 46 residues (C46) followed by mass spectrometry. […] Quantitative curves of PTEFb signal intensity from western blot in D against increasing concentration of p46. […]

[4] = target: T1, PTEFb; assay: GFP IP-MS and GFP IP western blot of GFP-tagged BRD4 constructs; format: binding; details: GFP-tagged; for binding to PTEFb (western blot for GFP IP): Dox 2 days
[5] = target: BRD4 (UniProt O60885+Q38825); assay: Western blot of BRD4 degradation in BRD4-IAA7 degron line; format: cell-based, human; details: BRD4-IAA7 DLD1 degron line; auxin 500 uM 2 or 3 h; JQ1 1 uM or dBET6 250 nM 3 h
[6] = target: T2, BRDT (Homo sapiens, UniProt Q58F21); assay: Western blot of dBET6 treatment in NCIH2009 cells (BRDT); format: cell-based; details: dBET6 3 h
T2 construct: endogenous in cells; host or cells: NCIH2009
Excerpt: FLAG antibody (#F1804) was obtained from Millipore Sigma. […] H3 antibody was generated in-house.

[7] = tested on: Ser2P; assay: Ser2P ChIP-seq upon JQ1 or dBET6 treatment; format: cell-based, human; details: BRD4-IAA7 cells; series concentration of JQ1 or 250 nM dBET6, 3 h
Protocol: FIGS. 5A-5J collectively illustrate the identification of a distinct BRD4-PTEFb population, which is active but not histone acetylation-bound. FIG. 5A illustrates the track examples for AID ChIP-seq in the BRD4-AID line and CCNT1 ChIP-seq in the BRD4-IAA7 line with/without auxin treatment (3 h). H3K27ac ChIP-seq signal in the BRD4-AID line is shown for comparison. FIG. 5B illustrates the heatmap showing the genome-wide BRD4 and CCNT1 occupancy profile and the corresponding fold change upon auxin treatment for the conditions in A. Genes ranked by BRD4 signal in control. FIG. 5C illustrates the scatter plot showing the relative promoter density of CCNT1 vs BRD4, calculated by the log 2RPKM of the ChIP-seq signals at the regions flanking (±1 Kb) the Pol II pausing sites. FIG. 5D illustrates the track examples for GFP ChIP-seq signal upon induction of GFP-tagged BRD4-FL or the indicated mutants (left). Heatmap showing the genome-wide fold changes of the GFP-tagged BRD4 mutants relative to the vector (right). The endogenous BRD4 was depleted by auxin treatment (3 h) in all samples. Genes are ranked by GFP signal in the GFP-BRD4-FL condition. FIG. 5E illustrates the track examples for CCNT1 ChIP-seq signal upon endogenous BRD4 depletion and rescue with indicated GFP-tagged mutants (left). Heatmap showing the genome-wide CCNT1 fold changes (right). […]

[8] = tested on: Pol II pausing; details: reference 21; cited from earlier work

Compound: NVP2
Pol II pausing genome-wide upon CDK9 inhibition ([1]; DLD1 cells, NVP-2 treatment 2 h): induced strong Pol II pausing genome-wide

binding of PTEFb to Bio-p46 ([2]; cell lysate pre-incubated with increasing concentration of p46): decreased binding of PTEFb
"IC50" ([2]; competition between free and biotin-labelled peptides, in vitro): hundred nanomole level
amount of PTEFb bound to endogenous BRD4 or overexpressed GFP-tagged C46 ([3]; p46 added to cell lysate prior to IP): significantly decreased
Compound: p46: synthetic peptide of the BRD4 C terminus 46 residues

binding to PTEFb (western blot for GFP IP) [4]: bind to PTEFb strongly
Compound: C46: BRD4 C terminus 46aa (SEQ ID NO: 1) expressed in cells with a GFP tag
interaction with PTEFb (GFP IP-MS) ([4]; Dox 50 nM 2 days): does not impair its interaction with PTEFb
competition with endogenous BRD4 for PTEFb (endogenous BRD4 IP) ([3]; C46 expressed in BRD4-V5-IAA7 degron line): competes with the endogenous BRD4 for PTEFb

Compound: O=C(O)Cc1c[nH]c2ccccc12 [auxin]
BRD4 degradation (western blot) [5]: rapidly degraded
Pol II pausing (Pol II occupancy profile) ([1]; BRD4-IAA7 cells): inducing pausing at the majority of Pol II-transcribed genes

binding to PTEFb (western blot for GFP IP) [4]: bind to PTEFb strongly
Compound: C85: BRD4 C terminus 85aa expressed in cells with a GFP tag

degradation of endogenous BRDT [6]: degraded
Compound: Cc1sc2c(c1C)C(c1ccc(Cl)cc1)=N[C@@H](CC(=O)NCCCCCCCCNC(=O)COc1cccc3c1C(=O)N(C1CCC(=O)NC1=O)C3=O)c1nnc(C)n1-2 (stereo partly drawn) [dBET6]
Pol II pausing (Pol II occupancy profile) ([1]; BRD4-IAA7 cells): inducing pausing at the majority of Pol II-transcribed genes
gene-by-gene log 2PRR correlation with auxin treatment ([1]; BRD4-IAA7 cells, scatter plot): much stronger
Ser2P ChIP-seq signals [7]: Ser2P signal fade away
effect on Pol II pausing (RNA-seq, NET-seq) [8]: dramatic, genome-wide increase in paused Pol II at promoters
